The results in this text go back to ChEMBL document CHEMBL3046695, “Structure-antifeedant activity relationship of clerodane diterpenoids. Comparative study with withanolides and azadirachtin” (2000).

This assay concerns Tenebrio molitor. The experiment in a line: Antifeedant activity against third-instar larvae Tenebrio molitor in compound treated carrot slices assessed as feeding inhibition at 100 ppm. The assay is classed as functional. The following applies: in Daucus carota.
As usually defined, the inhibition is the share of the control response that was lost under treatment. As for `CC1=C(C)C(=O)OC(C2CO[C@@]3(O)C[C@H]4[C@@H](C[C@@H](O)[C@@]5(O)CC=CC(=O)[C@]45C)[C@@H]4CC[C@]2(O)C43)C1` (stereo not given in full), the inhibition at 100 ppm came to 31.6%.

As for `C[C@H](c1ccc2c(c1)CC[C@H]1[C@H]2C[C@@H]2O[C@@]23CC=CC(=O)[C@]13C)[C@@H]1C[C@@]2(C)O[C@@]2(C)[C@@H](O)O1`, the inhibition at 100 ppm turned out to be 29.9%. With `CC(=O)O[C@H](C[C@@]1(C)[C@H](C)CC[C@]2(C)[C@H]1CCC[C@@]21CO1)/C(=C/CO)CO`, the inhibition at 100 ppm amounted to 51.9%.

`C=C1CCC[C@H]2[C@@](C)(C/C=C(/CO)CCO)[C@H](C)CC[C@@]12C`: the inhibition at 100 ppm was 57.3%. Turning to `CC(=O)OC[C@@]12[C@@H](OC(C)=O)C[C@@H](C)[C@]3(C[C@H](c4ccoc4)OC3=O)[C@H]1CCCC2(O)O`, the inhibition at 100 ppm came out at 45%. With `CC(=O)OC[C@@]12[C@@H](OC(C)=O)C[C@@H](C)[C@]3(C[C@H](c4ccoc4)OC3=O)[C@H]1CCC[C@@H]2C=O`, the inhibition at 100 ppm is 41%. As to `COC1C=C([C@H]2C[C@@]3(C(=O)O2)[C@H](C)C[C@H](OC(C)=O)[C@]2(COC(C)=O)[C@@H]3CCC[C@]23CO3)C(OC)O1` (stereo not given in full), the inhibition at 100 ppm came to 47.3%. Regarding `CC(=O)OC[C@@]12[C@@H](OC(C)=O)C[C@@H](C)[C@]3(C[C@H](c4ccoc4)OC3=O)[C@H]1CC[C@H](OC(C)=O)[C@]21CO1`, the inhibition at 100 ppm stood at 30.6%. For the molecule `CC1=CC2C[C@@H]3[C@@]1(CC[C@H](C)[C@@]31C[C@@H](c3ccoc3)OC1=O)C(=O)O2`, the inhibition at 100 ppm was 62.7%. The result for `C[C@H]1CC[C@@]23C(=O)OC(C[C@H]2[C@]12C[C@@H](c1ccoc1)OC2=O)[C@H]1O[C@]13C` reads 57.9%; that for `C[C@]12C[C@H](c3ccoc3)OC(=O)[C@H]1CC[C@@]13COC(=O)[C@H]1C=CC[C@@H]23`, 47.3%; that for `C[C@]12C[C@H](C3CCOC3)OC(=O)[C@@H]1CC[C@@]13COC(=O)[C@H]1CCC[C@@H]23` (stereo not given in full), 49.4%.

For `C[C@]12C[C@H](c3ccoc3)OC[C@@H]1CC[C@@]13COC(=O)[C@H]1CCC[C@@H]23`, the inhibition at 100 ppm was 46%.

With `C[C@]12C[C@H](c3ccoc3)OC(=O)[C@@H]1[C@H](O)C[C@@]13COC(=O)C1=CCC[C@H]32`, the inhibition at 100 ppm amounted to 26.6%. With `C[C@]12C[C@H](c3ccoc3)OC(=O)[C@@H]1CC[C@@]13COC(=O)C1=CCC[C@H]32`, the inhibition at 100 ppm was found to be 22.6%. Turning to `C[C@@H]1CC[C@@]2(CO)C(CO)=CCC[C@H]2[C@@]1(C)CCc1ccoc1`, the inhibition at 100 ppm was determined as 48.7%. Consider `CC(=O)OC[C@@]12[C@@H](OC(C)=O)C[C@@H](C)[C@](C)(CC(=O)c3ccoc3)[C@@H]1CCC[C@]21CO1`, for which the inhibition at 100 ppm was 58%. As to `CC(=O)OC[C@@]12[C@@H](OC(C)=O)C[C@@H](C)[C@](C)(C[C@H](OC(C)=O)c3ccoc3)[C@@H]1CCC[C@]21CO1`, the inhibition at 100 ppm worked out at 31.4%. The result for `C[C@@H]1[C@H](O)C[C@@]23COC(=O)[C@H]2CC[C@H](O)[C@H]3[C@@]1(C)CCC1CCOC1` (stereo not given in full) reads 48.4%; that for `C[C@@H]1CC[C@@]23COC(=O)C2=CCC[C@H]3[C@@]1(C)CCC1COC(=O)C1` (stereo not given in full), 62.6%; that for `C[C@@H]1[C@H](O)C[C@@]23COC(=O)C2=CC[C@H](O)[C@H]3[C@@]1(C)CCc1ccoc1`, 31.3%.

`C[C@@H]1CC[C@@]23COC(=O)C2=CCC[C@H]3[C@@]1(C)CCc1ccoc1`: the inhibition at 100 ppm came to 31%.

`C/C=C(\C)C(=O)O[C@H]1C[C@@H](OC(C)=O)[C@@]2(C(=O)OC)CO[C@H]3[C@@H](O)[C@@](C)([C@]45O[C@@]4(C)[C@@H]4C[C@H]5O[C@@H]5OC=C[C@@]54O)[C@H]4[C@]1(CO[C@]4(O)C(=O)OC)[C@@H]32` [AZADIRACHTIN A]: the inhibition at 100 ppm came out at 29.6%. The result for `CC(=O)OC[C@@]12[C@@H](OC(C)=O)C[C@@H](C)[C@]3(C[C@H](c4ccoc4)OC3=O)[C@H]1CCC[C@]21CO1` [MONTANIN C] reads 25%; that for `CC1=C(C)[C@H]([C@H]2O[C@@]3(O)C[C@H]4[C@@H](C[C@H]5O[C@]56CC=CC(=O)[C@]46C)[C@@H]4CC[C@@](O)([C@@H]2C)[C@]43C)OC1=O` [TRECHONOLIDE A], 44.7%.
